Measurements from paper PMC7271024, “N1-Benzofused Modification of Fluoroquinolones Reduces Activity Against Gram-Negative Bacteria” (ACS Omega, 2020).
≈ marks a conversion by molar mass, not a printed value.

Assays:
[1] = tested on: K. pneumoniae NCTC 13368; experiment: MIC, microdilution broth method; type: cell-based, Klebsiella pneumoniae; conditions: Klebsiella pneumoniae, ciprofloxacin-resistant strain (R)
Protocol: (§1) The antibacterial activities of the synthesized fluoroquinolones were evaluated against a panel of Gram-negative pathogens including K. pneumoniae (NCTC 13368, M6), Acinetobacter baumannii (AYE, ATCC 17978), Pseudomonas aeruginosa (PAO1, NCTC 13437), and Escherichia coli (NCTC 12923, LEC001). The ability of molecules to permeate the Gram-negative outer membrane was investigated by adding membrane permeabilizer polymyxin B nonapeptide (PMBN) at sub-inhibitory concentrations (Table 2). Phenylalanine–arginine β-naphthylamide (PAβN) was used to investigate efflux of compounds by resistance–nodulation–division (RND)-family efflux pumps (Table 3).
(§2) Minimal inhibitory concentrations (MICs) were determined using the microdilution broth method. Briefly, compounds were added to the first two columns of a 96-well plate and diluted two-fold down the plate in tryptic soy broth. Overnight cultures of bacteria were then adjusted to a concentration of 1 × 10^6 CFU/mL and added to each well for a final concentration of 5 × 10^5 CFU/mL.

[2] = tested on: A. baumannii AYE; experiment: MIC, microdilution broth method; type: cell-based, Acinetobacter baumannii; conditions: Acinetobacter baumannii, ciprofloxacin-resistant strain (R)
Protocol: as §1, §2

[3] = tested on: panel of Gram-negative pathogens; experiment: MIC panel, statements across strains; type: cell-based, K. pneumoniae, A. baumannii, P. aeruginosa, E. coli; conditions: versus ciprofloxacin
Protocol: as §1, §2

[4] = tested on: E. coli LEC001; experiment: MIC, microdilution broth method; type: cell-based, Escherichia coli; conditions: Escherichia coli, ciprofloxacin-resistant strain (R)
Protocol: as §1, §2

[5] = tested on: P. aeruginosa PAO1; experiment: MIC, microdilution broth method; type: cell-based, Pseudomonas aeruginosa; conditions: for potentiation of MIC by PMBN: MIC –PMBN vs +PMBN; for MIC: Pseudomonas aeruginosa, ciprofloxacin-sensitive strain (S)
[6] = Solubility as observed in the MIC and enzyme experiments; type: physicochemical; conditions: evidenced when undertaking the MIC experiments
Protocol: In vitro activity assays using purified S. aureus, E. coli and P. aeruginosa DNA gyrase, and S. aureus topoisomerase IV enzymes were performed in order to evaluate whether the gains in inhibitory activity predicted for the benzofused compounds were accurate. The benzothiophene-containing 6e was selected as a representative compound for the purposes of this experiment. […].
A general correlation between N1 substituent hydrophobicity and activity is observed; […].

[7] = tested on: E. coli NCTC 12923; experiment: MIC, microdilution broth method; type: cell-based, Escherichia coli; conditions: Escherichia coli, ciprofloxacin-sensitive strain (S)
[8] = tested on: A. baumannii ATCC 17978; experiment: MIC, microdilution broth method; type: cell-based, Acinetobacter baumannii; conditions: Acinetobacter baumannii, ciprofloxacin-sensitive strain (S)
[9] = tested on: P. aeruginosa NCTC 13437; experiment: MIC, microdilution broth method; type: cell-based, Pseudomonas aeruginosa; conditions: for potentiation of MIC by PMBN: MIC –PMBN vs +PMBN; for MIC: Pseudomonas aeruginosa, ciprofloxacin-resistant strain (R)
Protocol: as §1, §2

[10] = tested on: K. pneumoniae M6; experiment: MIC, microdilution broth method; type: cell-based, Klebsiella pneumoniae; conditions: Klebsiella pneumoniae, ciprofloxacin-sensitive strain (S)

## O=C(O)c1cn(Cc2cccc3ccoc23)c2cc(N3CCNCC3)c(F)cc2c1=O [Compound 6f]
[1]; NCTC13368, +PMBN (30 μg/mL)
  MIC: > 128 µg/mL
[1]; NCTC13368, –PMBN
  MIC: > 128 µg/mL
[2]; +PMBN (30 μg/mL)
  MIC: > 128 µg/mL
[2]; –PMBN
  MIC: > 128 µg/mL
[3]
  antibacterial activity: almost complete loss of activity
[4]; LEC001, +PMBN (30 μg/mL)
  MIC: > 32 µg/mL
[4]; LEC001, –PMBN
  MIC: > 32 µg/mL
[5]
  potentiation of MIC by PMBN: over 8 fold
[5]; PAO1, +PMBN (30 μg/mL)
  MIC: 16 µg/mL (≈ 38 µM)
[5]; PAO1, –PMBN
  MIC: > 128 µg/mL
[6]
  solubility profile: poor solubility profiles
[7]; NCTC12923, +PMBN (30 μg/mL)
  MIC: 32 µg/mL (≈ 75.9 µM)
[7]; NCTC12923, –PMBN
  MIC: > 128 µg/mL
[8]; ATCC17978, +PMBN (30 μg/mL)
  MIC: > 128 µg/mL
[8]; ATCC17978, –PMBN
  MIC: > 128 µg/mL
[9]
  potentiation of MIC by PMBN: over 8 fold
[9]; NCTC13437, +PMBN (30 μg/mL)
  MIC: 32 µg/mL (≈ 75.9 µM)
[9]; NCTC13437, –PMBN
  MIC: > 128 µg/mL
[10]; M6, +PMBN (30 μg/mL)
  MIC: > 128 µg/mL
[10]; M6, –PMBN
  MIC: > 128 µg/mL

## O=C(O)c1cn(Cc2cccc3ccsc23)c2cc(N3CCNCC3)c(F)cc2c1=O [Compound 6g]
[1]; NCTC13368, +PMBN (30 μg/mL)
  MIC: > 128 µg/mL
[1]; NCTC13368, –PMBN
  MIC: > 128 µg/mL
[2]; +PMBN (30 μg/mL)
  MIC: > 128 µg/mL
[2]; –PMBN
  MIC: > 128 µg/mL
[3]
  antibacterial activity: almost complete loss of activity
[4]; LEC001, +PMBN (30 μg/mL)
  MIC: > 32 µg/mL
[4]; LEC001, –PMBN
  MIC: > 32 µg/mL
[5]
  potentiation of MIC by PMBN: over 8 fold
[5]; PAO1, +PMBN (30 μg/mL)
  MIC: 32 µg/mL (≈ 73.1 µM)
[5]; PAO1, –PMBN
  MIC: > 128 µg/mL
[6]
  solubility profile: poor solubility profiles
[7]; NCTC12923, +PMBN (30 μg/mL)
  MIC: 128 µg/mL (≈ 293 µM)
[7]; NCTC12923, –PMBN
  MIC: > 128 µg/mL
[8]; ATCC17978, +PMBN (30 μg/mL)
  MIC: > 128 µg/mL
[8]; ATCC17978, –PMBN
  MIC: > 128 µg/mL
[9]
  potentiation of MIC by PMBN: over 8 fold
[9]; NCTC13437, +PMBN (30 μg/mL)
  MIC: 16 µg/mL (≈ 36.6 µM)
[9]; NCTC13437, –PMBN
  MIC: > 128 µg/mL
[10]; M6, +PMBN (30 μg/mL)
  MIC: > 128 µg/mL
[10]; M6, –PMBN
  MIC: > 128 µg/mL
